Measurements published in patent publication US20230089073A1 (Carmot Therapeutics, Inc., priority 2021, published 2023).

What follows are compounds tested against T1, human GLP-1 receptor (Homo sapiens, UniProt P43220) (assay: GLP-1R cAMP Assay). Conditions: cAMP accumulation in CHO cells stably overexpressing the human GLP-1 receptor; 30 min treatment; HitHunter cAMP kit; read-out: EC50.
T1 construct: expressed in transfected cells
Assay type: cell-based
Method in brief: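 CHO cells stably overexpressing human GLP-1R, 10,000 cells/well, treated with compound in 20-point dose response in triplicate for 30 min. cAMP accumulation read by enzyme-complementation luminescence after lysis and overnight incubation; dose-response curves fitted.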

T1 sequence (P43220 24-463): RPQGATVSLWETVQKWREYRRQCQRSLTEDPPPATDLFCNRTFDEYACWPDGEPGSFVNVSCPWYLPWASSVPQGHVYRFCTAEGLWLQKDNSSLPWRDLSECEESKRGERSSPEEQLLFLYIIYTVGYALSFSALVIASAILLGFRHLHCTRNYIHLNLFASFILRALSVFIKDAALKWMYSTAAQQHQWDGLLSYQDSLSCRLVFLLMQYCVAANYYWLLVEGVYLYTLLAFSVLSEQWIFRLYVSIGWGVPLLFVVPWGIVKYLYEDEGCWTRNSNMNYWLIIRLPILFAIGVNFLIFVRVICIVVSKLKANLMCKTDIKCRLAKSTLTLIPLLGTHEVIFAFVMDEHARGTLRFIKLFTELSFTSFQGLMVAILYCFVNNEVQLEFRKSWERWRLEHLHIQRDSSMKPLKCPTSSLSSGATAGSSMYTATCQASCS

EC50 | Compound
< 50 nM | N#Cc1cc(Cl)ccc1OCc1cccc(OC2CCN(Cc3nc4ccc(C(=O)O)cc4n3Cc3ncco3)CC2)c1 [Compound 232, 2-[(4-{3-[(4-chloro-2-cyanophenoxy)methyl]phenoxy}piperidin-1-yl)methyl]-1-[(1,3-oxazol-2-yl)methyl]-1H-1,3-benzodiazole-6-carboxylic acid]
< 50 nM | N#CCC1(Cn2c(CN3CCC(Oc4ccnc(COc5ccc(Cl)cc5Cl)n4)CC3)nc3ccc(C(=O)O)cc32)CC1 [Compound 340]
< 50 nM | N#Cc1cc(F)ccc1OCc1cccc(OC2CCN(Cc3nc4c(F)cc(C(=O)O)cc4n3C[C@@H]3CCO3)CC2)c1 [Compound 317]
> 500 nM | CN(C)C(=O)c1ccc(OCc2ccc(C(=O)N3CCN(Cc4nc5ccc(C(=O)O)cc5n4C[C@@H]4CCO4)CC3)o2)c(F)c1 [Compound 49, 2-{[4-(5-{[4-(dimethylcarbamoyl)-2-fluorophenoxy]methyl}furan-2-carbonyl)piperazin-1-yl]methyl}-1-{[(2S)-oxetan-2-yl]methyl}-1H-1,3-benzodiazole-6-carboxylic acid]
< 50 nM | CCn1cncc1Cn1c(CN2CC[C@@H](Cc3cnc(COc4ccc(Cl)cc4Cl)o3)C[C@@H]2C)nc2ccc(C(=O)O)cc21 [Compound 278, 2-{[(2S,4R)-4-({2-[(2,4-dichlorophenoxy)methyl]-1,3-oxazol-5-yl}methyl)-2-methylpiperidin-1-yl]methyl}-1-[(1-ethyl-1H-imidazol-5-yl)methyl]-1H-1,3-benzodiazole-6-carboxylic acid]
< 50 nM | CCn1cncc1Cn1c(CN2CCC(Cc3cccc(COc4ccc(C)cc4Cl)n3)CC2)nc2ccc(C(=O)O)cc21 [Compound 120, 2-{[4-({6-[(2-chloro-4-methylphenoxy)methyl]pyridin-2-yl}methyl)piperidin-1-yl]methyl}-1-[(1-ethyl-1H-imidazol-5-yl)methyl]-1H-1,3-benzodiazole-6-carboxylic acid]
< 50 nM | N#CCC1(Cn2c(CN3CCC(Oc4ccnc(COc5ccc(Cl)cc5F)c4)CC3)nc3ccc(C(=O)O)cc32)CC1 [Compound 337]
< 50 nM | Cn1cncc1Cn1c(CN2CCC(Oc3ccnc(COc4ccc(Cl)cc4F)c3)CC2)nc2ccc(C(=O)O)cc21 [Compound 267, 2-{[4-({2-[(4-chloro-2-fluorophenoxy)methyl]pyridin-4-yl}oxy)piperidin-1-yl]methyl}-1-[(1-methyl-1H-imidazol-5-yl)methyl]-1H-1,3-benzodiazole-6-carboxylic acid]
< 50 nM | CCn1cncc1Cn1c(CN2CCC(Oc3ccnc(COc4ccc(Cl)cc4CO)c3)CC2)nc2ccc(C(=O)O)cc21 [Compound 287, 2-({4-[(2-{[4-chloro-2-(hydroxymethyl)phenoxy]methyl}pyridin-4-yl)oxy]piperidin-1-yl}methyl)-1-[(1-ethyl-1H-imidazol-5-yl)methyl]-1H-1,3-benzodiazole-6-carboxylic acid]
50 to 500 nM | Cc1ccc(Oc2cccc(C(=O)N3CCN(Cc4nc5ccc(C(=O)O)cc5n4C[C@@H]4CCO4)CC3)c2)c(Cl)c1 [Compound 15, 2-({4-[3-(2-chloro-4-methylphenoxy)benzoyl]piperazin-1-yl}methyl)-1-{[(2S)-oxetan-2-yl]methyl}-1H-1,3-benzodiazole-6-carboxylic acid]
< 50 nM | O=C(O)c1ccc2nc(CN3CC=C(Cc4ccc(COc5ccc(Cl)cc5Cl)o4)CC3)n(C[C@@H]3CCO3)c2c1 [Compound 84, 2-{[4-({5-[(2,4-dichlorophenoxy)methyl]furan-2-yl}methyl)-1,2,3,6-tetrahydropyridin-1-yl]methyl}-1-{[(2S)-oxetan-2-yl]methyl}-1H-1,3-benzodiazole-6-carboxylic acid]
> 500 nM | N#Cc1cc(Cl)ccc1OCc1cccc(OC2CCN(Cc3nc4ccc(C(=O)O)cc4n3Cc3cnco3)CC2)n1 [Compound 252, 2-{[4-({6-[(4-chloro-2-cyanophenoxy)methyl]pyridin-2-yl}oxy)piperidin-1-yl]methyl}-1-[(1,3-oxazol-5-yl)methyl]-1H-1,3-benzodiazole-6-carboxylic acid]
> 500 nM | O=C(O)c1ccc2nc(CN3CCN(C(=O)c4cccc(Oc5ccc(C(F)(F)F)cc5Cl)c4)CC3)n(C[C@@H]3CCO3)c2c1 [Example 2, (S)-2-((4-(3-(2-Chloro-4-(trifluoromethyl)phenoxy)benzoyl)piperazin-1-yl)methyl)-1-(oxetan-2-ylmethyl)-1H-benzo[d]imidazole-6-carboxylic acid]
> 500 nM | O=C(O)c1ccc2nc(CN3CCC(Oc4cccnc4COc4ccc(Cl)cc4Cl)CC3)n(C[C@@H]3CCO3)c2c1 [Compound 286, 2-{[4-({2-[(2,4-dichlorophenoxy)methyl]pyridin-3-yl}oxy)piperidin-1-yl]methyl}-1-{[(2S)-oxetan-2-yl]methyl}-1H-1,3-benzodiazole-6-carboxylic acid]
50 to 500 nM | O=C(O)c1ccc2nc(CN3CCN(C(=O)c4cccc(Cc5ccc(Cl)cc5Cl)c4)CC3)n(C[C@@H]3CCO3)c2c1 [Compound 48, 2-[(4-{3-[(2,4-dichlorophenyl)methyl]benzoyl}piperazin-1-yl)methyl]-1-{[(2S)-oxetan-2-yl]methyl}-1H-1,3-benzodiazole-6-carboxylic acid]
> 500 nM | O=C(c1ccc(-c2nnn[nH]2)nc1)N1CCC(Cc2ccc(COc3ccc(Cl)cc3Cl)o2)CC1 [Compound 107, 5-[4-({5-[(2,4-dichlorophenoxy)methyl]furan-2-yl}methyl)piperidine-1-carbonyl]-2-(1H-1,2,3,4-tetrazol-5-yl)pyridine]
< 50 nM | Cc1ccc(OCc2cccc(CC3CCN(Cc4nc5ccc(C(=O)O)cc5n4C[C@@H]4CCO4)CC3)n2)c(CO)c1 [Example 146, (S)-2-((4-((6-((2-(Hydroxymethyl)-4-methylphenoxy)methyl)pyridin-2-yl)methyl)piperidin-1-yl)methyl)-1-(oxetan-2-ylmethyl)-1H-benzo[d]imidazole-6-carboxylic acid]
< 50 nM | N#Cc1ccc(OCc2nccc(OC3CCN(Cc4nc5ncc(C(=O)O)cc5n4C[C@@H]4CCO4)CC3)n2)c(F)c1 [Example 486, (S)-2-((4-((2-((4-Cyano-2-fluorophenoxy)methyl)pyrimidin-4-yl)oxy)piperidin-1-yl)methyl)-1-(oxetan-2-ylmethyl)-1H-imidazo[4,5-b]pyridine-6-carboxylic acid]
< 50 nM | Cc1ccc(N(C)c2cccc(CC3CCN(Cc4nc5ccc(C(=O)O)cc5n4C[C@@H]4CCO4)CC3)c2)c(Cl)c1 [Example 116, (S)-2-((4-(3-((2-Chloro-4-methylphenyl)(methyl)amino)benzyl)piperidin-1-yl)methyl)-1-(oxetan-2-ylmethyl)-1H-benzo[d]imidazole-6-carboxylic acid]
< 50 nM | COCCn1c(CN2CCC(Oc3ccnc(COc4ccc(Cl)cc4F)c3)CC2)nc2c(F)cc(C(=O)O)cc21 [Compound 344]
50 to 500 nM | O=C(O)c1ccc2nc(CN3CCC(Cc4cccc(COc5ccc(Cl)cc5Cl)c4F)CC3)n(C[C@@H]3CCO3)c2c1 [Compound 135, 2-{[4-({3-[(2,4-dichlorophenoxy)methyl]-2-fluorophenyl}methyl)piperidin-1-yl]methyl}-1-{[(2S)-oxetan-2-yl]methyl}-1H-1,3-benzodiazole-6-carboxylic acid]
> 500 nM | Cc1ccc(NCc2cccc(C(=O)N3CCN(Cc4nc5ccc(C(=O)O)cc5n4C[C@@H]4CCO4)CC3)c2)c(Cl)c1 [Compound 80, 2-{[4-(3-{[(2-chloro-4-methylphenyl)amino]methyl}benzoyl)piperazin-1-yl]methyl}-1-{[(2S)-oxetan-2-yl]methyl}-1H-1,3-benzodiazole-6-carboxylic acid]
< 50 nM | Cc1ccc(N(C)c2ccc(F)c(C(=O)N3CCN(Cc4nc5ccc(C(=O)O)cc5n4C[C@@H]4CCO4)CC3)c2)c(Cl)c1 [Compound 98, 2-[(4-{5-[(2-chloro-4-methylphenyl)(methyl)amino]-2-fluorobenzoyl}piperazin-1-yl)methyl]-1-{[(2S)-oxetan-2-yl]methyl}-1H-1,3-benzodiazole-6-carboxylic acid]
< 50 nM | O=C(O)c1ccc2nc(CN3CCC(Oc4ccnc(COc5ncc(Cl)cc5F)c4)CC3)n(C[C@@H]3CCO3)c2c1 [Compound 308]
< 50 nM | Cc1ccc(OCc2ccc(F)c(CC3CCN(Cc4nc5ccc(C(=O)O)cc5n4C[C@@H]4CCO4)CC3)n2)c(Cl)c1 [Compound 123, 2-{[4-({6-[(2-chloro-4-methylphenoxy)methyl]-3-fluoropyridin-2-yl}methyl)piperidin-1-yl]methyl}-1-{[(2S)-oxetan-2-yl]methyl}-1H-1,3-benzodiazole-6-carboxylic acid]
> 500 nM | Cc1ccc(OCc2ccc(C(=O)N3CCN(Cc4nc5ccc(C(=O)O)cc5n4C[C@@H]4CCO4)CC3)o2)c(Cl)c1 [Compound 38, 2-[(4-{5-[(2-chloro-4-methylphenoxy)methyl]furan-2-carbonyl}piperazin-1-yl)methyl]-1-{[(2S)-oxetan-2-yl]methyl}-1H-1,3-benzodiazole-6-carboxylic acid]
< 50 nM | O=C(O)c1ccc2nc(CN3CCC(Oc4ccnc(COc5ccc(Cl)cc5F)c4)CC3)n(CC3(CF)CC3)c2c1 [Compound 321]
< 50 nM | CCn1cncc1Cn1c(CN2CC[C@H](Oc3ccnc(COc4ccc(Cl)cc4Cl)c3)C[C@@H]2C)nc2ccc(C(=O)O)cc21 [Example 274, 2-(((2S,4S)-4-((2-((2,4-Dichlorophenoxy)methyl)pyridin-4-yl)oxy)-2-methylpiperidin-1-yl)methyl)-1-((1-ethyl-1H-imidazol-5-yl)methyl)-1H-benzo[d]imidazole-6-carboxylic acid]
< 50 nM | CCn1cncc1Cn1c(CN2CCC(Cc3ccc(COc4ccc(Cl)cc4Cl)o3)CC2)nc2ccc(C(=O)O)nc21 [Compound 108, 2-{[4-({5-[(2,4-dichlorophenoxy)methyl]furan-2-yl}methyl)piperidin-1-yl]methyl}-3-[(1-ethyl-1H-imidazol-5-yl)methyl]-3H-imidazo[4,5-b]pyridine-5-carboxylic acid]
